Measurements as given in PMC5603512, “Discovery, Semisynthesis, Antiparasitic and Cytotoxic Evaluation of 14-Membered Resorcylic Acid Lactones and Their Derivatives” (Scientific Reports, 2017).
Where two headings read alike, the source gives them in different places.

How the values were obtained:
[1] = Cytotoxicity SRB assay, HCT-116; conditions: human
Protocol: (§1) All of the compounds were also evaluated for their cytotoxic properties against six human cancer cell lines (lung carcinoma epithelian (A549), colon carcinoma (HCT-116), pancreatic carcinoma (BXPC-3), breast cancer (MCF-7), cervical epithelium (HeLa), and erythroleukemic (K562)) and a human umbilical vein endothelial cell (HUVEC) line (Table 2).
(§2) The cytotoxicity against HCT-116, BXPC-3, HeLa, MCF-7, A-549, and HUVEC cell lines was evaluated using the SRB method. The cytotoxicity against K562 and Vero cell lines was evaluated using the MTT method. Adriamycin was used as a positive control. All cells were cultivated in T-75 flasks containing 10% Fetal Bovine Serum (FBS), Dulbeco’s Modified Eagle Medium (DMEM) with 2 mM L-glutamine, and 1% penicillin-streptomycin at 37 °C in a humidified atmosphere with 5% CO2. For SRB assay, cells in their log phase of growth were seeded into 96 well micro plates (4 × 10^4 cells per well) and followed by treating with test samples at 10 μM or DMSO. After incubation at 37 °C for 72 h, the cells were fixed with the cold 20% (w/v) TCA for 2 h and stained with Sulforhodamine B (SRB) dye for 0.5 h. The protein-bound dye is dissolved in Tris base solution for OD determination at 540 nm on an ELISA Plate Reader. For MTT assay, cells (5 × 10^3 cells per well) were plated in 96 well micro plates. After cell attachment overnight, new medium containing test compounds or DMSO was added. The plate was incubated for 48 h at 37 °C and incubated with 3-(4,5-dimethylthiazol-2-yl)-2,5-diphenyltetrazolium bromide (MTT) for additional 2–4 hours. The assay plate was then read at 490 nm on an ELISA Plate Reader. The data were obtained from experiments carried out in triplicate.

[2] = Cytotoxicity SRB assay, BXPC-3; conditions: human
Protocol: as §1, §2

[3] = Cytotoxicity SRB assay, HeLa; conditions: human
Protocol: as §1, §2

[4] = Cytotoxicity SRB assay, MCF-7; conditions: human
Protocol: as §1, §2

[5] = Cytotoxicity SRB assay, A-549; conditions: human
Protocol: as §1, §2

[6] = Cytotoxicity MTT assay, K562; conditions: human
Protocol: as §1, §2

Leishmania donovani = test: Antileishmanial assay (PicoGreen); assay type: cell-based
Protocol: The anti-leishmania activity was evaluated following the protocol described by Calderon et al.[39], using the fluorescent DNA intercalator PicoGreen (Invitrogen, USA). The species responsible for visceral leishmaniasis, L. donovani, was used for the assays.

Plasmodium falciparum = test: Antiplasmodial assay (PicoGreen growth inhibition in infected human erythrocytes); assay type: cell-based
Protocol: Activity against the causative agent of malaria was performed by culturing human erythrocytes and infecting them with P. falciparum, as described by Trager and Jensen[36]. Briefly, the W2 (Chloroquine resistant) and 3D7 (Chloroquine sensitive) strains of P. falciparum were cultured in RPMI 1640 medium (Sigma-Aldrich, USA) supplemented with 10% human serum (from O+ blood) at a hematocrit of 2% erythrocytes (O+) at 37 °C in a gas mixture of 5% CO2, 5% O2, and 90% N2. Parasites were synchronized by a temperature cycling technique as described by Almanza et al.[37]

Trypanosoma cruzi = test: Antitrypanosomal assay (beta-galactosidase reporter, intracellular amastigotes in Vero cells); assay type: cell-based; conditions: for IC50: Trypanosoma cruzi; on Trypanosoma cruzi IC50: key: I: Inactive
Protocol: Briefly, the expression of the reporter gene for beta-galactosidase (β-Gal) in the Tulahuen clone C4 of T. cruzi is assessed by colorimetry at 570 nm, which correlates with the parasite growth. Assays were performed on the intracellular amastigote form of the parasite infecting African green monkey kidney (Vero) cells, incubated for 120 h at 37 °C with 5% CO2.

[7] = Toxicity against Vero cells (MTT); assay type: cell-based, African green monkey; conditions: African green monkey, MTT, 48 h
Protocol: It should be emphasized that toxicity is a major concern of drug discovery and development. The above active compounds were evaluated for in vitro toxicity against a mammalian kidney cell line (Vero). The selectivity index (SI) was used as the evaluation parameter of drug potential of the test samples by comparing the toxicity on the Vero cell line (CC50) and the selective inhibitory effect on P. falciparum, L. donovani or T. cruzi (IC50) calculated here as CC50/IC50.
Adriamycin was used as a positive control.

[8] = Cytotoxicity SRB assay, HUVEC; conditions: human
Protocol: as §1, §2

[9] = BXPC-3 pancreatic carcinoma cells
[10] = Erythrocyte, in vitro, W2 and 3D7 strains cultured, strain of the values not stated, read-out: Plasmodium falciparum IC50
[11] = in vitro, read-out: Leishmania donovani IC50
[12] = Tulahuen clone C4, intracellular amastigotes in Vero cells, 120 h
[13] = Vero cells (mammalian kidney cell line)
[14] = 3D7, Erythrocyte, read-out: Plasmodium falciparum IC50
[15] = read-out: Leishmania donovani IC50

Structure (SMILES) | IC50 at 72 h ([1]; HCT-116 colon carcinoma cells) [µM] | IC50 at 72 h [2, 9] [µM] | IC50 at 72 h ([3]; HeLa cervical epithelium cells) [µM] | IC50 at 72 h ([4]; MCF-7 breast cancer cells) [µM] | IC50 at 72 h ([5]; A-549 lung carcinoma cells) [µM] | IC50 at 48 h ([6]; K562 erythroleukemic cells) [µM] | IC50 (Plasmodium falciparum; [10]) [µM] | IC50 (Leishmania donovani; [11]) [µM] | Trypanosoma cruzi IC50 (Trypanosoma cruzi; [12]) | IC50 (Plasmodium falciparum; [14]) [µM] | IC50 (Leishmania donovani; [15]) [µM] | IC50 at 72 h [1] [µM] | IC50 at 72 h [2] [µM] | IC50 at 72 h [3] [µM] | IC50 at 72 h [4] [µM] | IC50 at 72 h [5] [µM] | IC50 at 48 h [6] [µM] | other results
COc1cccc2c1C(=O)c1c(O)c3c(c(O)c1C2=O)C[C@@](O)(C(=O)CO)C[C@@H]3O[C@H]1C[C@H](N)[C@H](O)[C@H](C)O1 [Adriamycin, reference compound] | 0.21 | 0.033 | 0.6 | 0.86 | 0.16 | 0.25 |  |  |  |  |  |  |  |  |  |  |  | 
C[C@@H]1[C@H](O)[C@@H](C)/C=C/C=C/C=C/C=C/C=C/C=C/C=C/[C@H](O[C@@H]2O[C@H](C)[C@@H](O)[C@H](N)[C@@H]2O)C[C@@H]2O[C@](O)(C[C@@H](O)C[C@@H](O)[C@H](O)CC[C@@H](O)C[C@@H](O)CC(=O)O[C@H]1C)C[C@H](O)[C@H]2C(=O)O [Amphotericin B, reference compound] |  |  |  |  |  |  |  |  |  |  |  |  |  |  |  |  |  | IC50 (Leishmania donovani; positive control, sentence ends with ref 40, read-out: IC50 of positive control, antileishmanial assay): 0.0763 µM
COc1cc(O)c2c(c1)/C=C/C[C@H](O)[C@@H]1OC(C)(C)O[C@H]1/C=C/C[C@H](C)OC2=O [Compound 1, cochliomycin A] | > 10 | > 10 | > 10 | > 10 | > 10 | > 10 | 30.7 | > 15.7 | I |  |  |  |  |  |  |  |  | CC50 at 48 h [7, 13]: 96 µM
COc1cc(O)c2c(c1Cl)/C=C/C[C@H](O)[C@H](O)[C@@H](O)CCC[C@H](C)OC2=O [Compound 2, cochliomycin C] |  |  |  |  |  |  |  |  | I | > 30.7 | > 15.7 | > 10 | > 10 | > 10 | > 10 | > 10 | > 10 | 
COc1cc(O)c2c(c1)/C=C/C[C@H](O)[C@@H](O)C(=O)/C=C/C[C@H](C)OC2=O [Compound 4] | > 10 | > 10 | > 10 | > 10 | > 10 | > 10 | > 30.7 | 15.2 | I |  |  |  |  |  |  |  |  | 
COc1cc(O)c2c(c1)/C=C/C[C@@H](O)[C@@H](O)C(=O)/C=C/C[C@H](C)OC2=O [Compound 5] | > 10 | > 10 | > 10 | > 10 | > 10 | > 10 | > 30.7 | > 15.7 | I |  |  |  |  |  |  |  |  | 
COc1cc(O)c2c(c1)/C=C/C[C@H](O)[C@H](O)[C@@H](O)/C=C/C[C@H](C)OC2=O [Compound 8, zeaenol] |  |  |  |  |  |  |  |  | I | > 30.7 | > 15.7 | > 10 | > 10 | > 10 | > 10 | > 10 | > 10 | CC50 at 48 h [7]: 227 µM; IC50 at 72 h [8]: > 10 µM
COc1cc(O)c2c(c1)/C=C/C[C@H](O)[C@H](O)C(=O)CCC[C@H](C)OC2=O [Compound 9] |  |  |  |  |  |  |  |  | I | > 30.7 | > 15.7 | > 10 | > 10 | > 10 | > 10 | > 10 | > 10 | CC50 at 48 h [7]: 131 µM
COc1cc(O)c2c(c1)/C=C/C[C@H](O)[C@H](O)[C@@H](O)CCC[C@H](C)OC2=O [Compound 10] |  |  |  |  |  |  |  |  | I | > 30.7 | > 15.7 | > 10 | > 10 | > 10 | > 10 | > 10 | > 10 | CC50 at 48 h [7]: 274 µM
CCC(=O)Oc1cc(OC)cc2c1C(=O)O[C@@H](C)C/C=C/[C@H](OC(=O)CC)[C@@H](OC(=O)CC)[C@@H](OC(=O)CC)C/C=C/2 [Compound 14] | > 10 | > 10 | > 10 | > 10 | > 10 | > 10 | > 30.7 | > 15.7 | I |  |  |  |  |  |  |  |  | 
COc1cc(O)c2c(c1Cl)/C=C/C[C@H](O)[C@H](O)[C@@H](O)/C=C/C[C@H](C)OC2=O [Compound 16] | > 10 | > 10 | > 10 | > 10 | > 10 | > 10 | > 30.7 | > 15.7 | I |  |  |  |  |  |  |  |  | CC50 at 48 h [7, 13]: 260 µM
COc1cc(O)c2c(c1Cl)/C=C/C[C@H](O)[C@@H]1OC(C)(C)O[C@H]1/C=C/C[C@H](C)OC2=O [Compound 17] | > 10 | > 10 | > 10 | > 10 | > 10 | > 10 | > 30.7 | > 15.7 | I |  |  |  |  |  |  |  |  | CC50 at 48 h [7, 13]: 143 µM
COc1cc(O)c2c(c1Cl)/C=C/C[C@H](O)[C@@H]1OC(C)(C)O[C@H]1CCC[C@H](C)OC2=O [Compound 18] |  |  |  |  |  |  |  |  | I | > 30.7 | > 15.7 | > 10 | > 10 | > 10 | > 10 | > 10 | > 10 | CC50 at 48 h [7]: 102 µM
COc1cc(OC(C)=O)c2c(c1Cl)/C=C/C[C@H](OC(C)=O)[C@H](OC(C)=O)[C@@H](OC(C)=O)CCC[C@H](C)OC2=O [Compound 19] |  |  |  |  |  |  |  |  | I | > 30.7 | > 15.7 | > 10 | > 10 | > 10 | > 10 | > 10 | > 10 | 
COc1cc2c(c(OC(=O)c3cccs3)c1)C(=O)O[C@@H](C)C/C=C/C(=O)[C@@H](OC(=O)c1cccs1)[C@@H](OC(=O)c1cccs1)C/C=C/2 [Compound 22] |  |  |  |  |  |  | 20.1 | 3.03 |  |  |  |  |  |  |  |  |  | IC50 (Trypanosoma cruzi; Tulahuen clone C4, intracellular amastigotes in Vero cells, 120 h, read-out: Trypanosoma cruzi IC50): 6.31 µM; CC50 at 48 h [7, 13]: 11.5 µM
COc1cc2c(c(OC(C)=O)c1)C(=O)O[C@@H](C)C/C=C/C(=O)[C@@H](OC(C)=O)[C@H](OC(C)=O)C/C=C/2 [Compound 24] | > 10 |  | > 10 |  | > 10 |  | > 30.7 | 12.1 |  |  |  |  |  |  |  |  |  | CC50 at 48 h [7, 13]: 3.2 µM; IC50 at 72 h ([8]; HUVEC (umbilical vein endothelial cells)): > 10 µM
COc1cc(O)c2c(c1)/C=C/C[C@H]1OC(C)(C)O[C@H]1C(=O)/C=C/C[C@H](C)OC2=O [Compound 25] |  |  |  |  |  |  | > 30.7 | > 15.7 | I |  |  | > 10 | > 10 | > 10 | > 10 | > 10 | > 10 | IC50 at 72 h [8]: > 10 µM
O=C(Cn1ccnc1[N+](=O)[O-])NCc1ccccc1 [benznidazole, reference compound] |  |  |  |  |  |  |  |  |  |  |  |  |  |  |  |  |  | IC50 (Trypanosoma cruzi; Vero, control drug, sentence ends with ref 41, read-out: IC50 of control drug, antitrypanosomal assay): 3.85 µM
CCN(CC)CCCC(C)Nc1ccnc2cc(Cl)ccc12 (centres unmarked) [chloroquine, reference compound] |  |  |  |  |  |  |  |  |  |  |  |  |  |  |  |  |  | IC50 (Plasmodium falciparum; Erythrocyte, read-out: IC50 of positive control, antiplasmodial assay): 0.0329 µM
